# Reference: publication PMC10385636, “Inhibition Mechanism of Chitooligosaccharide-Polyphenol Conjugates toward Polyphenoloxidase from Shrimp Cephalothorax” (Molecules, 2023)
# System: T1, PPO (polyphenoloxidase from Pacific white shrimp cephalothorax)
# T1 construct: gene proPO; crude native extract of cephalothorax powder; not purified; isoenzyme not identified (hemocyanin-derived activity not excluded); docking model 3WKY is not the assayed protein
# Experiment: dopachrome absorbance at […] nm, Lineweaver-Burk
# Assay type: biochemical, Penaeus vannamei
# Settings: no inhibitor (0 mg/mL); crude extract; pH 6.0, 45 °C per activity assay; unit as in table footnote but substrate was dosed 2.5-25 mM, so unit is doubtful (possibly mM)
smiles,measurement,value
N[C@@H](Cc1ccc(O)c(O)c1)C(=O)O [L-DOPA],Concentration (mg/mL) / 0,7.0695 mg/mL
